Source: patent publication US20170202838A1, “IMMUNOMODULATOR” (TAIHO PHARMACEUTICAL CO., LTD., priority 2015, published 2017)

Columns and labels:
Format in all cases: cell-based
[1] = test system: human peripheral blood mononuclear cells; assay: Induction of IL-2 production of PHA-M-stimulated human peripheral blood mononuclear cells (Example 2); details: PHA-M 5 μg/ml, 3 days, ELISA (FIG. 3)
Description: Human peripheral blood mononuclear cells were introduced into a human complete medium (i.e., RPMI-1640 supplemented with 10% heat-inactivated FBS, 100 U/ml penicillin, and 100 μg/ml streptomycin) to prepare a cell suspension (1×10^6 cells/ml). Phytohemagglutinin M (PHA-M) was added thereto to the final concentration of 5 μg/ml, and Compound (I) or an EGFR tyrosine kinase inhibitor (AZD9291) was further added thereto to each final concentration. This culture solution was seeded in a 96-well plate at 200 μl/well and then cultured in an incubator at 37° C. in the presence of 5% CO2 for 3 days. The culture supernatant was recovered, and the concentration of IL-2 therein was measured via ELISA using the anti-hIL-2 antibody.

[2] = test system: human peripheral blood mononuclear cells; assay: Induction of cytokine production in human peripheral blood mononuclear cells, Bio-Plex Pro cytokine assay (Example 7); details: 2 days culture, no stimulant (FIG. 9)
Description: Human peripheral blood mononuclear cells were introduced into a human complete medium (i.e., RPMI-1640 supplemented with 10% heat-inactivated FBS, 100 U/ml penicillin, and 100 μg/ml streptomycin) to prepare a cell suspension (1×10^5 cells/ml). Compound (I), the EGFR tyrosine kinase inhibitor (i.e., AZD9291 or Erlotinib), or a cytokine-inducing positive control (i.e., Imiquimod) was added to the cell suspension. A control group to which the EGFR tyrosine kinase inhibitor and others were not added was also prepared (i.e., the non-treatment group). The culture solution was cultured in an incubator at 37° C. in the presence of 5% CO2 for 2 days. The culture supernatant was recovered, and various types of cytokines were inspected with the use of the Bio-Plex Pro human cytokine assay kit.

[3] = test system: mouse spleen cells; assay: Excitation of T cell growth, CFSE flow cytometry of CD4- and CD8-positive spleen cells (Example 4); details: 0.1 μM, 3 days culture of stimulated spleen cells
Description: The mouse spleen was extracted, grinded with glass slides with frosted areas, and then subjected to hemolysis, so as to obtain spleen cells. The spleen cells were suspended in 5 ml of a staining buffer (0.5% BSA, 2 mM EDTA, PBS(-)), and the cells were stained with 5 μM CFSE (5-carboxyfluorescein succinimidyl ester). Thereafter, the stained cells were washed with an ice-cooled complete medium (RPMI-1640). The CFSE-stained spleen cells were introduced into a complete medium (i.e., RPMI-1640 supplemented with 10% heat-inactivated FBS, 100 U/ml penicillin, 100 μg/ml streptomycin, and 55 μM 2-mercaptoethanol) to prepare a cell suspension (1×10^6 cells/ml), the anti-CD3 antibody and the anti-CD28 antibody were added at 1 μg/ml and 1 μg/ml, respectively, and Compound (I) adjusted to various concentrations or the EGFR tyrosine kinase inhibitor (i.e., AZD09291, Erlotinib, Co1686 (Rociletinib), Ibrutinib, Sunitinib, or Dasatinib) was added at 0.1 μM. […] These culture solutions were seeded in a 96-well plate at 200 μl/well and then cultured in an incubator at 37° C. in the presence of 5% CO2 for 3 days. The cells were recovered and stained with the anti-CD4 antibody and the anti-CD8 antibody. The amounts of CFSE in CD4- and CD8-positive cells were analyzed via flow cytometry.
Once CFSE is incorporated into a cell, the amount thereof is kept constant in the cell. Since the amount of CFSE per cell decreases by half upon cell division, according to flow cytometric analysis, the intensity of CFSE staining is attenuated and is shifted toward left (i.e., lower level) in the chart, as cell division proceeds. […] In the case of the samples to which other types of EGFR tyrosine kinase inhibitors had been added, in contrast, no such activity for enhancing the cell growth was observed.

| Compound | concentration of IL-2 produced by human peripheral blood mononuclear cells in the culture supernatant [1] | cytokine concentrations relative to the non-treatment group [2] | cell death [3] |
| --- | --- | --- | --- |
| C=CC(=O)Nc1cc(Nc2nccc(-c3cn(C)c4ccccc34)n2)c(OC)cc1N(C)CCN(C)C [AZD9291, reference compound] | substantially no activity for inducing IL-2 production | such induction was not observed | – |
| Cc1nc(Nc2ncc(C(=O)Nc3c(C)cccc3Cl)s2)cc(N2CCN(CCO)CC2)n1 [Dasatinib, reference compound] | – | – | cell death was induced |
| C#Cc1cccc(Nc2ncnc3cc(OCCOC)c(OCCOC)cc23)c1 [Erlotinib] | – | such induction was not observed | – |
